Source: PubChem BioAssay AID256 (DTP/NCI, 2004)
“And” between values parts separate entries of the source, which are not always exact repeats. Identical values can stand only once. Inconclusive results and toxic doses are left out.

System: CD2F1 mice, L1210 leukemia ip, survival T/C
Test: NCI In Vivo Anticancer Drug Screen. Data for tumor model L1210 Leukemia (intraperitoneal) in CD2F1 (CDF1) mice
Conditions: higher = longer survival
In short: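 Ratio T/C, where T is the treated-group value and C the vehicle-dosed control value, from mice implanted with a transplantable tumor.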

[1] = endpoint: mean survival time, dose: 100.0 mg/kg/injection, schedule: Q04DX003 (ip), vehicle: saline
[2] = endpoint: mean survival time, dose: 100.0 mg/kg/injection, schedule: Q04DX003 (ip), vehicle: saline with Tween-80
[3] = endpoint: mean survival time, dose: 200.0 mg/kg/injection, schedule: Q04DX003 (ip), vehicle: saline with Tween-80
[4] = endpoint: mean survival time, dose: 400.0 mg/kg/injection, schedule: Q04DX003 (ip), vehicle: saline with Tween-80
[5] = endpoint: mean survival time, dose: 50.0 mg/kg/injection, schedule: Q01DX009 (ip), vehicle: saline with Tween-80
[6] = endpoint: mean survival time, dose: 100.0 mg/kg/injection, schedule: Q01DX009 (ip), vehicle: saline with Tween-80
[7] = endpoint: mean survival time, dose: 200.0 mg/kg/injection, schedule: Q01DX009 (ip), vehicle: saline with Tween-80
[8] = endpoint: mean survival time, dose: 50.0 mg/kg/injection, schedule: Q01DX001 (ip), vehicle: saline
[9] = endpoint: mean survival time, dose: 100.0 mg/kg/injection, schedule: Q01DX001 (ip), vehicle: saline
[10] = endpoint: mean survival time, dose: 100.0 mg/kg/injection, schedule: Q01DX001 (ip), vehicle: saline with Tween-80
[11] = endpoint: mean survival time, dose: 200.0 mg/kg/injection, schedule: Q01DX001 (ip), vehicle: saline with Tween-80
[12] = endpoint: mean survival time, dose: 400.0 mg/kg/injection, schedule: Q01DX009 (ip), vehicle: saline with Tween-80
[13] = endpoint: mean survival time, dose: 100.0 mg/kg/injection, schedule: Q01DX009 (ip), vehicle: saline
[14] = endpoint: mean survival time, dose: 25.0 mg/kg/injection, schedule: Q04DX003 (ip), vehicle: saline with Tween-80
[15] = endpoint: mean survival time, dose: 50.0 mg/kg/injection, schedule: Q04DX003 (ip), vehicle: saline with Tween-80
[16] = endpoint: mean survival time, dose: 50.0 mg/kg/injection, schedule: Q04DX002 (ip), vehicle: saline with Tween-80
[17] = endpoint: mean survival time, dose: 100.0 mg/kg/injection, schedule: Q04DX002 (ip), vehicle: saline with Tween-80

## NS(=O)(=O)c1ccc(NC(=O)/C=C/C(=O)O)cc1
[1]
  T/C: 101 % of control
endpoint: mean survival time, dose: 200.0 mg/kg/injection, schedule: Q04DX003 (ip), vehicle: saline
  T/C: 97 % of control
endpoint: mean survival time, dose: 400.0 mg/kg/injection, schedule: Q04DX003 (ip), vehicle: saline
  T/C: 97 % of control

## CNC(=O)NNc1ccccc1
[2]
  T/C: 102 % of control
[3]
  T/C: 98 % of control
[4]
  T/C: 104 % of control

## Cc1c(F)cccc1[N+](=O)[O-]
[5]
  T/C: 101 % of control
[6]
  T/C: 104 % of control
[7]
  T/C: 98 % of control

## Oc1ccc(Br)cc1/C=N/c1nc(-c2ccccc2)cs1.Oc1ccc(Br)cc1/C=N/c1nc(-c2ccccc2)cs1.[Zn]
endpoint: mean survival time, dose: 25.0 mg/kg/injection, schedule: Q01DX001 (ip), vehicle: saline
  T/C: 100 % of control
[8]
  T/C: 100 % of control
[9]
  T/C: 100 % of control

## Cc1ccc(-n2c(O)c(C=N)c(=O)n(-c3ccc(C)cc3)c2=O)cc1
[2]
  T/C: 95 % of control
[3]
  T/C: 95 % of control
[4]
  T/C: 97 % of control

## CC(=O)OC1C2(CC3N4C(=O)C5(CO)SSC4(CC31O)C(=O)N5C)OC(C)C(C)(C)C2=O (stereo unspecified)
endpoint: mean survival time, dose: 0.15 mg/kg/injection, schedule: Q01DX009 (ip), vehicle: saline
  T/C: 101 % of control
endpoint: mean survival time, dose: 0.16 mg/kg/injection, schedule: Q01DX009 (ip), vehicle: saline with Tween-80
  T/C: 97 % of control
endpoint: mean survival time, dose: 0.31 mg/kg/injection, schedule: Q01DX009 (ip), vehicle: saline with Tween-80
  T/C: 101 % of control
endpoint: mean survival time, dose: 0.31 mg/kg/injection, schedule: Q01DX009 (ip), vehicle: saline
  T/C: 100 % of control
endpoint: mean survival time, dose: 0.62 mg/kg/injection, schedule: Q01DX009 (ip), vehicle: saline
  T/C: 100 % of control
endpoint: mean survival time, dose: 0.63 mg/kg/injection, schedule: Q01DX009 (ip), vehicle: saline with Tween-80
  T/C: 101 % of control
endpoint: mean survival time, dose: 1.25 mg/kg/injection, schedule: Q01DX009 (ip), vehicle: saline
  T/C: 120 % of control and 98 % of control and 100 % of control
endpoint: mean survival time, dose: 2.5 mg/kg/injection, schedule: Q01DX009 (ip), vehicle: saline with Tween-80
  T/C: 98 % of control
endpoint: mean survival time, dose: 2.5 mg/kg/injection, schedule: Q01DX009 (ip), vehicle: saline
  T/C: 107 % of control

## CC(=O)Nc1ccc(S(=O)(=O)F)cc1
[5]
  T/C: 93 % of control
[10]
  T/C: 91 % of control
[6]
  T/C: 93 % of control
[2]
  T/C: 94 % of control
[11]
  T/C: 100 % of control
[3]
  T/C: 102 % of control

## Cc1nc2c(n1C)C(=O)c1ccccc1C2=O
[1]
  T/C: 101 % of control

## C1=CCOCOC1
endpoint: mean survival time, dose: 12.5 mg/kg/injection, schedule: Q01DX009 (ip), vehicle: saline with Tween-80
  T/C: 106 % of control
endpoint: mean survival time, dose: 25.0 mg/kg/injection, schedule: Q01DX009 (ip), vehicle: saline with Tween-80
  T/C: 96 % of control
[5]
  T/C: 114 % of control and 102 % of control
[6]
  T/C: 100 % of control and 103 % of control
[2]
  T/C: 100 % of control
[7]
  T/C: 106 % of control
[3]
  T/C: 118 % of control

## CN(C)C(=O)N1CC1
[2]
  T/C: 98 % of control
[3]
  T/C: 98 % of control
[4]
  T/C: 106 % of control

## O=C(CC(=O)c1ccccc1F)Nc1ccc([N+](=O)[O-])cc1
[6]
  T/C: 90 % of control
[2]
  T/C: 96 % of control
[7]
  T/C: 93 % of control
[3]
  T/C: 95 % of control
[12]
  T/C: 88 % of control
[4]
  T/C: 97 % of control

## CCN(CC)CCNc1nc(-c2cc(C(F)(F)F)cc(C(F)(F)F)c2)nc(C(Cl)(Cl)Cl)n1
endpoint: mean survival time, dose: 100.0 mg/kg/injection, schedule: Q01DX005 (ip), vehicle: saline
  T/C: 100 % of control
[13]
  T/C: 93 % of control
endpoint: mean survival time, dose: 200.0 mg/kg/injection, schedule: Q01DX005 (ip), vehicle: saline
  T/C: 103 % of control
endpoint: mean survival time, dose: 200.0 mg/kg/injection, schedule: Q01DX009 (ip), vehicle: saline
  T/C: 93 % of control
endpoint: mean survival time, dose: 400.0 mg/kg/injection, schedule: Q01DX005 (ip), vehicle: saline
  T/C: 95 % of control
endpoint: mean survival time, dose: 400.0 mg/kg/injection, schedule: Q01DX009 (ip), vehicle: saline
  T/C: 93 % of control

## O=C(c1ccc([N+](=O)[O-])cc1)C(Br)C(Br)c1ccnc2ccccc12 (stereo unspecified)
endpoint: mean survival time, dose: 12.5 mg/kg/injection, schedule: Q04DX003 (ip), vehicle: saline with Tween-80
  T/C: 92 % of control
[14]
  T/C: 98 % of control
[15]
  T/C: 95 % of control

## COc1ccc(-c2cc3ccccc3c(=O)o2)cc1
[6]
  T/C: 98 % of control
[7]
  T/C: 98 % of control
[12]
  T/C: 91 % of control

## O=S(=O)(O)O.[NH-]C1CCCCCC1[NH-].[Pt+2] (stereo unspecified)
endpoint: mean survival time, dose: 1.56 mg/kg/injection, schedule: Q04DX003 (ip), vehicle: dextrose
  T/C: 205 % of control
endpoint: mean survival time, dose: 3.13 mg/kg/injection, schedule: Q01DX001 (ip), vehicle: dextrose
  T/C: 200 % of control and 204 % of control
endpoint: mean survival time, dose: 3.13 mg/kg/injection, schedule: Q04DX003 (ip), vehicle: dextrose
  T/C: 188 % of control and 241 % of control and 103 % of control
endpoint: mean survival time, dose: 6.25 mg/kg/injection, schedule: Q01DX001 (ip), vehicle: dextrose
  T/C: 170 % of control and 189 % of control
endpoint: mean survival time, dose: 12.5 mg/kg/injection, schedule: Q01DX001 (ip), vehicle: dextrose
  T/C: 86 % of control
endpoint: mean survival time, dose: 12.5 mg/kg/injection, schedule: Q04DX003 (ip), vehicle: dextrose
  T/C: 97 % of control

## O=C(/C=C/c1ccccc1)N1CC2CCC(CC2)C1
[5]
  T/C: 94 % of control
[6]
  T/C: 94 % of control
[7]
  T/C: 91 % of control

## CN1CCN(c2ccccc2N)CC1
endpoint: mean survival time, dose: 5.0 mg/kg/injection, schedule: Q01DX009 (ip), vehicle: saline with Tween-80
  T/C: 108 % of control
endpoint: mean survival time, dose: 10.0 mg/kg/injection, schedule: Q01DX009 (ip), vehicle: saline with Tween-80
  T/C: 108 % of control
endpoint: mean survival time, dose: 20.0 mg/kg/injection, schedule: Q01DX009 (ip), vehicle: saline with Tween-80
  T/C: 102 % of control

## [Cl][Pt+2][Cl].[N-]=C(N)/N=C(\[NH-])N
endpoint: median survival time, dose: 12.5 mg/kg/injection, schedule: Q04DX003 (ip), vehicle: distilled water + Tween-80
  T/C: 104 % of control
endpoint: median survival time, dose: 25.0 mg/kg/injection, schedule: Q04DX003 (ip), vehicle: distilled water + Tween-80
  T/C: 101 % of control
endpoint: median survival time, dose: 50.0 mg/kg/injection, schedule: Q04DX003 (ip), vehicle: distilled water + Tween-80
  T/C: 101 % of control
endpoint: median survival time, dose: 100.0 mg/kg/injection, schedule: Q04DX003 (ip), vehicle: distilled water + Tween-80
  T/C: 108 % of control
endpoint: median survival time, dose: 200.0 mg/kg/injection, schedule: Q04DX003 (ip), vehicle: distilled water + Tween-80
  T/C: 108 % of control

## S=C(NCCNC(=S)[S][Sn]([c]1ccccc1)([c]1ccccc1)[c]1ccccc1)[S][Sn]([c]1ccccc1)([c]1ccccc1)[c]1ccccc1
[14]
  T/C: 88 % of control
[15]
  T/C: 93 % of control
[2]
  T/C: 100 % of control

## CCC(C)C(C(=O)OCCN(C)C)c1ccccc1 (stereo unspecified)
[5]
  T/C: 100 % of control
[6]
  T/C: 97 % of control
[7]
  T/C: 103 % of control

## CCOC(=O)c1cc(=O)c2ccccc2[nH]1
endpoint: mean survival time, dose: 50.0 mg/kg/injection, schedule: Q01DX001 (ip), vehicle: saline with Tween-80
  T/C: 93 % of control
[10]
  T/C: 98 % of control
[11]
  T/C: 90 % of control

## O=C1C2=Cc3ccccc3CN2Cc2ccccc21
endpoint: mean survival time, dose: 75.0 mg/kg/injection, schedule: Q01DX001 (ip), vehicle: other
  T/C: 98 % of control
endpoint: mean survival time, dose: 150.0 mg/kg/injection, schedule: Q01DX001 (ip), vehicle: other
  T/C: 101 % of control

## O=C(O)/C=C/SCCC(=O)O
[2]
  T/C: 93 % of control and 101 % of control
[3]
  T/C: 101 % of control and 94 % of control

## Cc1c(Cl)ccc(OCC2=NCCN2)c1C
endpoint: mean survival time, dose: 25.0 mg/kg/injection, schedule: Q04DX002 (ip), vehicle: saline with Tween-80
  T/C: 109 % of control
[16]
  T/C: 97 % of control
[17]
  T/C: 100 % of control and 102 % of control

## CN(C)c1ccc(/C=C2\C=Nc3ccccc32)cc1
[14]
  T/C: 87 % of control
[2]
  T/C: 87 % of control

## O=C1[O][Sb]23[O]C(=O)C([O]2)C(O)C(O)C2[O][Sb]4([O]C(=O)C([O]4)C(O)C(O)C1[O]3)[O]C2=O (stereo unspecified)
endpoint: mean survival time, dose: 25.0 mg/kg/injection, schedule: Q01DX009 (ip), vehicle: saline
  T/C: 95 % of control
[8]
  T/C: 97 % of control
endpoint: mean survival time, dose: 50.0 mg/kg/injection, schedule: Q01DX009 (ip), vehicle: saline
  T/C: 95 % of control
endpoint: mean survival time, dose: 50.0 mg/kg/injection, schedule: Q04DX003 (ip), vehicle: saline
  T/C: 87 % of control
[9]
  T/C: 101 % of control
[13]
  T/C: 98 % of control
[1]
  T/C: 91 % of control
endpoint: mean survival time, dose: 200.0 mg/kg/injection, schedule: Q01DX001 (ip), vehicle: saline
  T/C: 96 % of control

## Oc1ccccc1-c1nnc(-c2ccccc2)o1
[16]
  T/C: 91 % of control
[17]
  T/C: 87 % of control
endpoint: mean survival time, dose: 200.0 mg/kg/injection, schedule: Q04DX002 (ip), vehicle: saline with Tween-80
  T/C: 95 % of control
endpoint: mean survival time, dose: 400.0 mg/kg/injection, schedule: Q04DX002 (ip), vehicle: saline with Tween-80
  T/C: 87 % of control
